We go through 27 molecules from patent publication US9676758B2, “1-heteroaryl-indoline-4-carboxamides as modulators of GPR52 useful for the treatment or prevention of disorders related thereto” (Arena Pharmaceuticals, Inc., priority 2015, dated 2017).

The target in the test is T1, recombinant GPR52 (Homo sapiens, UniProt Q9Y2T5).
T1 construct: expressed in transfected cells
T1 sequence (Q9Y2T5 whole entry): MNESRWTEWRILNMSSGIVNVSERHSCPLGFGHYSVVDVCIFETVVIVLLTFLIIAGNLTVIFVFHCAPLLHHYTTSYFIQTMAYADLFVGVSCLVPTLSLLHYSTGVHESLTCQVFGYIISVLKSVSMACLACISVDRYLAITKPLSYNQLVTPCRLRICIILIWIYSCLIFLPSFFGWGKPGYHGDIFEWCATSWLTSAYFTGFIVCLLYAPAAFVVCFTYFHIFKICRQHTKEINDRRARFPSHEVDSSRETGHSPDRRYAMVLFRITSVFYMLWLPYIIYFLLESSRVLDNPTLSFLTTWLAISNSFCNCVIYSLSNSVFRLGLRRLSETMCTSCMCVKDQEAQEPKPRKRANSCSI
Kind of test: HTRF cAMP assay for direct cAMP measurement. The test is classed as cell-based. The following applies: mean EC50; CHO-K1 or HEK293 cells stably expressing recombinant GPR52. How it is done:
HTRF cAMP assays were performed using commercially available assay kits according to the manufacturer's instructions (cAMP Dynamic 2 Assay Kit; #62AM4PEJ, Cisbio Bioassays, Bedford, Mass.). CHO-K1 or HEK293 cells stably expressing recombinant GPR52 were harvested and resuspended in assay buffer (PBS containing 0.5 mM IBMX and 0.1% BSA) at a density of 1.2×10^6 cells per mL. […] Test compounds were solubilized and serially diluted in DMSO using 5-fold dilutions to generate 10-point dose response curves. These serially diluted samples were then further diluted in PBS to achieve a 2× stock. The diluted compounds were transferred to triplicate assay plates (5 μL per well to achieve the 1× final assay concentration). A positive control was included in each assay run. After one-hour incubation at room temperature, 5 μL of cAMP D2 reagent diluted in lysis buffer was added to each well, followed by 5 μL of cryptate reagent. Plates were then incubated at room temperature for one hour prior to reading. Time-resolved fluorescence measurements were collected on an HTRF-capable plate reader (e.g., EnVision® (PerkinElmer, Waltham, Mass.) or PHERAstar (BMG LABTECH, Cary, N.C.)). Counts from the plate reader were fit to the cAMP standard curve included on each plate to determine the amount of cAMP in each test well. Dose-response curves were generated from the cAMP data and analyzed using a nonlinear least squares curve-fitting program to obtain EC50 values.
Broadly, the EC50 is the concentration that produces a half-maximal response. With `N#Cc1cc(Cc2ccnc(N3CCc4c(C(N)=O)cccc43)c2)ccc1F` [Compound 60, 1-(4-(3-Cyano-4-fluorobenzyl)pyridin-2-yl)indoline-4-carboxamide], the 50% effective concentration (EC50) came to 11.7 nM.
In the case of `NC(=O)c1cccc2c1CCN2c1cc(Cc2ccc(F)c(CO)c2)ccn1` [Compound 63, 1-(4-(4-Fluoro-3-(hydroxymethyl)benzyl)pyridin-2-yl)indoline-4-carboxamide] it was 36.5 nM; in that of `NC(=O)c1cccc2c1CCN2c1cc(Cc2cccc(OC(F)(F)F)c2)ccn1` [Compound 64, 1-(4-(3-(Trifluoromethoxy)benzyl)pyridin-2-yl)indoline-4-carboxamide], 23.1 nM.
For the molecule `CC(=O)c1cc(Cc2ccnc(N3CCc4c(C(=O)NCCO)cccc43)c2)ccc1F` [Compound 77, 1-(4-(3-Acetyl-4-fluorobenzyl)pyridin-2-yl)-N-(2-hydroxyethyl)indoline-4-carboxamide], the 50% effective concentration (EC50) amounted to 10.7 nM.
For `CN(C)Cc1cccc(Cc2ccnc(N3CCc4c(C(N)=O)cccc43)c2)c1` [Compound 81, 1-(4-(3-((Dimethylamino)methyl)benzyl)pyridin-2-yl)indoline-4-carboxamide], the 50% effective concentration (EC50) is 3750 nM.
For the molecule `COc1ccc(Cc2ccnc(N3CCc4c(C(=O)NC5CCN(CCO)CC5)cccc43)c2)cc1F` [Compound 91, 1-(4-(3-Fluoro-4-methoxybenzyl)pyridin-2-yl)-N-(1-(2-hydroxyethyl)piperidin-4-yl)indoline-4-carboxamide], the half-maximal effective concentration (EC50) came out at 1.06 nM.
Consider `NC(=O)c1cccc2c1CCN2c1cc(Cc2ccc3c(c2)OCCCO3)ccn1` [Compound 96, 1-(4-((3,4-Dihydro-2H-benzo[b][1,4]dioxepin-7-yl)methyl)pyridin-2-yl)indoline-4-carboxamide], for which the 50% effective concentration (EC50) came to 212 nM.
Regarding `NC(=O)c1cccc2c1CCN2c1cc(Cc2ccc(O)c(F)c2)ccn1` [Compound 97, 1-(4-(3-Fluoro-4-hydroxybenzyl)pyridin-2-yl)indoline-4-carboxamide], the EC50 worked out at 35.9 nM.
In the case of `CC(=O)Oc1cccc(Cc2ccnc(N3CCc4c(C(N)=O)cccc43)c2)c1` [Compound 102, 3-((2-(4-Carbamoylindolin-1-yl)pyridin-4-yl)methyl)phenyl acetate] it was 21.4 nM; in that of `NC(=O)c1cccc2c1CCN2c1cc(Cc2cnc3ccccc3c2)ccn1` [Compound 111, 1-(4-(Quinolin-3-ylmethyl)pyridin-2-yl)indoline-4-carboxamide], 61 nM; in that of `Cn1cc(NC(=O)c2cccc3c2CCN3c2cc(Cc3cc(F)c(F)c(F)c3)ccn2)cn1` [Compound 117, N-(1-Methyl-1H-pyrazol-4-yl)-1-(4-(3,4,5-trifluorobenzyl)pyridin-2-yl)indoline-4-carboxamide], 23.6 nM.
In the case of `O=C(Nc1cnn(CCO)c1)c1cccc2c1CCN2c1cc(Cc2cc(F)c(F)c(F)c2)ccn1` [Compound 118, N-(1-(2-Hydroxyethyl)-1H-pyrazol-4-yl)-1-(4-(3,4,5-trifluorobenzyl)pyridin-2-yl)indoline-4-carboxamide], the concentration for a half-maximal effect (EC50) was 9.74 nM.
With `NC(=O)c1cccc2c1CCN2c1cc(Cc2cc3ccccc3o2)ccn1` [Compound 119, 1-(4-(Benzofuran-2-ylmethyl)pyridin-2-yl)indoline-4-carboxamide] the figure was 38.7 nM; with `COCC(COC)NC(=O)c1cccc2c1CCN2c1cc(Cc2cc(F)c(F)c(F)c2)ccn1` [Compound 131, N-(1,3-Dimethoxypropan-2-yl)-1-(4-(3,4,5-trifluorobenzyl)pyridin-2-yl)indoline-4-carboxamide], 307 nM.
In the case of `O=C(NCCN1CCNC1=O)c1cccc2c1CCN2c1cc(Cc2cc(F)c(F)c(F)c2)ccn1` [Compound 133, N-(2-(2-Oxoimidazolidin-1-yl)ethyl)-1-(4-(3,4,5-trifluorobenzyl)pyridin-2-yl)indoline-4-carboxamide] it was 18.3 nM; in that of `O=C(N[C@@H]1CCOC1=O)c1cccc2c1CCN2c1cc(Cc2cc(F)c(F)c(F)c2)ccn1` [Compound 135, (R)-N-(2-Oxotetrahydrofuran-3-yl)-1-(4-(3,4,5-trifluorobenzyl)pyridin-2-yl)indoline-4-carboxamide], 142 nM; in that of `O=C(NC[C@H](O)c1cccnc1)c1cccc2c1CCN2c1cc(Cc2cc(F)c(F)c(F)c2)ccn1` [Compound 148, (R)-N-(2-Hydroxy-2-(pyridin-3-yl)ethyl)-1-(4-(3,4,5-trifluorobenzyl)pyridin-2-yl)indoline-4-carboxamide], 37 nM.
In the case of `O=C(NCC1(CO)COC1)c1c(F)ccc2c1CCN2c1cc(Cc2cc(F)c(F)c(F)c2)ccn1` [Compound 155, 5-Fluoro-N-((3-(hydroxymethyl)oxetan-3-yl)methyl)-1-(4-(3,4,5-trifluorobenzyl)pyridin-2-yl)indoline-4-carboxamide] it was 55.9 nM; in that of `CN(C)CC(O)CNC(=O)c1cccc2c1CCN2c1cc(Cc2cc(F)c(F)c(F)c2)ccn1` (stereo not drawn) [Compound 158, N-(3-(Dimethylamino)-2-hydroxypropyl)-1-(4-(3,4,5-trifluorobenzyl)pyridin-2-yl)indoline-4-carboxamide], 6.76 nM; in that of `O=C(NC[C@H](O)C(F)(F)F)c1cccc2c1CCN2c1cc(Cc2cc(F)c(F)c(F)c2)ccn1` [Compound 160, (S)-N-(3,3,3-Trifluoro-2-hydroxypropyl)-1-(4-(3,4,5-trifluorobenzyl)pyridin-2-yl)indoline-4-carboxamide], 292 nM.
Take `COc1ccc(Cc2ccnc(N3CCc4c3ccc(F)c4C(=O)NCCNC(C)=O)c2)cc1F` [Compound 164, N-(2-Acetamidoethyl)-5-fluoro-1-(4-(3-fluoro-4-methoxybenzyl)pyridin-2-yl)indoline-4-carboxamide]: the EC50 was 10.9 nM.
Regarding `COC[C@@H](O)CNC(=O)c1cccc2c1CCN2c1cc(Cc2cc(F)cc(Cl)c2)ccn1` [Compound 168, (S)-1-(4-(3-Chloro-5-fluorobenzyl)pyridin-2-yl)-N-(2-hydroxy-3-methoxypropyl)indoline-4-carboxamide], the EC50 came to 31.6 nM.
For the molecule `CNC(=O)CCNC(=O)c1cccc2c1CCN2c1cc(Cc2cc(F)c(F)c(F)c2)ccn1` [Compound 172], the EC50 was 18 nM.
Turning to `O=C(NCCO)c1cccc2c1CCN2c1ccnc(Cc2cc(F)cc(Cl)c2)c1` [Compound 187, 1-(2-(3-Chloro-5-fluorobenzyl)pyridin-4-yl)-N-(2-hydroxyethyl)indoline-4-carboxamide], the EC50 was determined as 12.9 nM.
On to `COC[C@@H](O)CNC(=O)c1cccc2c1CCN2c1ccnc(Cc2cc(F)c(F)c(F)c2)c1` [Compound 189, (S)-N-(2-Hydroxy-3-methoxypropyl)-1-(2-(3,4,5-trifluorobenzyl)pyridin-4-yl)indoline-4-carboxamide], for which the concentration for a half-maximal effect (EC50) turned out to be 21.9 nM.
With `COc1ccc(Cc2ccnc(N3CCc4c(C(=O)NCCF)cccc43)c2)cc1F` [Compound 203, 1-(4-(3-fluoro-4-methoxybenzyl)pyridin-2-yl)-N-(2-fluoroethyl)indoline-4-carboxamide] the figure was 5.54 nM; with `COc1ccc(Cc2ccnc(N3CCc4c(C(=O)NCCOCCO)cccc43)c2)cc1F` [Compound 205, 1-(4-(3-fluoro-4-methoxybenzyl)pyridin-2-yl)-N-(2-(2-hydroxyethoxy)ethyl)indoline-4-carboxamide], 8.56 nM.
